This is an account of results in patent US8097624B2, “Cycloalkyl derivatives of 3-hydroxy-4-pyridinones” (Apotex Inc., priority 2006, dated 2012).

A short description of data set [1]: Distribution coefficient determination (D7.4), 1-octanol / MOPS buffer. As to conditions: 1-octanol / MOPS buffer pH 7.4. It counts as physicochemical. How it is done:
MOPS buffer (50 mM, pH=7.4) and 1-octanol were used as the aqueous phase and the organic phase, respectively, for distribution coefficient determinations. The MOPS buffer and 1-octanol were pre-saturated with each other before use.
In a typical experiment, an organic stock solution of Apo6618 (1-cyclopropyl-3-hydroxy-6-methyl-4-oxo-1,4-dihydro-pyridine-2-carboxylic acid cyclopropylamide) was prepared by weighing out 0.50 mg of the compound into a 10-mL volumetric flask and bringing to volume with 1-octanol. The solution was then sonicated for 60 minutes so that the sample could dissolve completely. The concentration of the stock solution was calculated as C^0org=2.0×10^−4 M. The organic standard solution of Apo6618 with 2.0×10^−5 M was prepared in a 10-mL volumetric flask by 10 times dilution of the stock solution with 1-octanol. The sample solution was prepared in a 10-mL volumetric flask. The stock sample solution (3 ml) was pipetted into the flask followed by the addition of MOPS buffer (3 ml). The standard and sample solutions were then vortexed for 2 hours. After vortexing, the solutions were transferred to test tubes and centrifuged at 4000 rpm for 15 minutes. UV-Vis spectra were recorded for the standard solution and the organic (top) phase of the sample solution at 22° C. The distribution coefficient, D7.4, was calculated using the following equation: D7.4=[Aorg/(C^0orgεorg−Aorg)]×(Vaqu/Vorg)
Where εorg=the molar extinction coefficient of the peak wavelength (λmax) obtained from the UV-Vis spectrum of the organic standard solution; Aorg=absorbance of the organic phase in the sample solution at the same λmax; C^0org=the concentration of the stock solution; Vaqu=the volume of MOPS buffer in the sample solution; Vorg=the volume of the stock solution in the sample solution.

For the next data set, the system named is Iron Overloaded Rats. Nature of the data set: Second rat study: urinary and fecal iron excretion at 28, 113 and 450 μmoles/kg. It counts as in vivo. The note with it: n=6/group, mean ± 1SD. How it is done: A second study was conducted to confirm the efficacy results of Apo6619 and Apo6617 observed in the above study and to further characterize the efficacy of these compounds at doses lower than 450 μmol/kg. The study was conducted in two separate groups of iron overloaded rats. The method of iron overloading, preparation of dosing solutions and assessment of efficacy in these rats was similar to that described in the above study.
The first group of rats (n=6) were treated with Apo6619 consecutively at doses of 28, 113 and 450 μmoles/kg. Similarly, the second group of rats (also n=6) was treated with Apo6617 at these same three doses. Similar to the previous study, both Apo6619 and Apo6617 produced an increase in urinary iron excretion at the 450 μmoles/kg dose (Apo6619: 11±3 at baseline to 335±76 1-day post-Apo6619, p=0.0001; Apo6617: 14±4 at baseline to 183±20 1-day post-Apo6617, p=0.0003). […] At 28 μmoles/kg, only Apo6617 produced an increase in iron excretion (p=0.01) above baseline. However, the magnitude of the increased excretion was small for both Apo6619 and Apo6617.

The nature of data set [2]: pKa determination by potentiometric or spectrophotometric titration. As to conditions: titration in 0.1 M NaCl at 22° C. The data set is classed as physicochemical. The protocol: The pKa values of ligands were determined by potentiometric titration when a ligand concentration greater than 1×10^−2 M in water could be prepared. In a typical experiment, the sample solution (2.67×10^−2 M) was prepared by the following method: Apo6619 (92.6 mg) was weighed into a 25-ml beaker, followed by the addition of 0.1 M NaCl (15 ml). The mixture was sonicated for 10 minutes to give a clear colorless solution. Nitrogen gas was then allowed to bubble through the solution. 1.000 N Hydrochloric acid (624 μl, 1.5 equivalent) was added to the solution to give pH 1.88. The solution was allowed to equilibrate at 22° C. for 60 minutes.
The solution was then titrated against 1.000 N NaOH at 22° C. to reach pH 11.8. For each addition of base, the solution was allowed to equilibrate until a constant pH reading was reached. The volume of the base added and the pH reading were recorded for each measurement. 137 measurements were taken to finish the experiment.
The data set of pH vs. base volume was analyzed using Hyperquad 2000 (Version 2.1, Peter Gans, University of Leeds).
The pKa values of ligands can be determined by spectrophotometric titration when both the conjugated acid and base absorb in the UV-Visible region. In a typical experiment, the sample solution was prepared by the following method: Apo6617 (0.792 mg) was weighed into an 80-ml beaker, followed by the addition of 0.1 M NaCl (50 ml). The mixture was sonicated for 5 minutes to give a clear colorless solution. Nitrogen gas was allowed to bubble through the solution. 1.000 N NaOH (50 μl) was added to give pH 10.9. The solution was allowed to equilibrate at 22° C. for 1 hour. A sipper system was used for the circulation of the sample solution between the beaker and the flow cell.
The sample solution was titrated against standard hydrochloric acid solutions at 22° C. to reach pH 1.40. After each addition of acid the solution was allowed to equilibrate until a constant pH reading was reached. The pH and the UV-Vis spectrum were recorded for each measurement. The peak wavelengths of the deprotonated species (L^−), the neutral species (LH), and the protonated species (LH2^+) were 314 nm, 281 nm, and 249 nm, respectively. In the region of pH>6, after each addition of acid there was a slight decrease in the absorbance at 314 nm and a slight increase at 281 nm in each spectrum, whereas in the region of pH<5, after each addition of acid there was a slight decrease in the absorbance at 281 nm and a slight increase at 249 nm in each spectrum. The solution was titrated until there was no obvious change in the spectra after several subsequent additions of acid. 116 measurements were taken to finish the experiment.
The resulting data set was then analyzed using pHAB (Peter Gans, University of Leeds).

Several values for one entry are separate records, joined by “and”; a condition that tells them apart may be missing. Equal values may be shown once.

The melting point is the temperature of the solid-liquid transition. On to `Cc1cc(=O)c(O)c(C(=O)NC2CC2)n1C` [Apo6617, 3-Hydroxy-1,6-dimethyl-4-oxo-1,4-dihydro-pyridine-2-carboxylic Acid Cyclopropylamide], for which the melting point lay in the range of 260 to 262 °C. The compound also showed a D7.4 in data set [1] of 0.099. For the same compound, in the data set with Iron Overloaded Rats (28 μmol/kg), the “Iron excretion, Urine (1 day post-chelator)” value (“Iron excretion, Urine” below) is 24 ± 6 µg/day/kg. In addition, in the data set with Iron Overloaded Rats (113 μmol/kg), the “Iron excretion, Feces (3 days)” value was determined as 2411 ± 335 µg/day/kg and the “Iron excretion, Urine” value was 28 ± 8 µg/day/kg. In addition, in the data set on Iron Overloaded Rats (450 μmol/kg), the “Iron excretion, Feces (3 days)” value is 3228 ± 437 µg/day/kg and the “Iron excretion, Urine” value came to 183 ± 20 µg/day/kg. In addition, in data set [2], the “pKas (higher value, phenolic C3 OH)” value is 8.6 and 8.5; the “pKas (lower value, LH2+)” value is 2.5 and 2.4.

For `CNC(=O)c1c(O)c(=O)cc(C)n1C1CC1` [Apo6619, 1-Cyclopropyl-3-hydroxy-6-methyl-4-oxo-1,4-dihydro-pyridine-2-carboxylic Acid Methylamide], the melting point was 258 to 260 °C (dec.). In data set [1], this compound yielded a D7.4 of 0.109. In addition, the “Iron excretion, Urine” value with Iron Overloaded Rats (28 μmol/kg) was 14 ± 4 µg/day/kg. In addition, in the data set with Iron Overloaded Rats (113 μmol/kg), the “Iron excretion, Feces (3 days)” value stood at 3033 ± 1076 µg/day/kg and the “Iron excretion, Urine” value was 51 ± 15*τ μg/day/kg. Also, in the data set with Iron Overloaded Rats (450 μmol/kg), the “Iron excretion, Feces (3 days)” value was found to be 3831 ± 790 µg/day/kg; the “Iron excretion, Urine” value was 335±76 μg/day/kg and 335 ± 76*τ μg/day/kg.

As to `Cc1c(O)c(=O)ccn1C` [deferiprone, 1,2-dimethyl-3-hydroxy-4-pyridinone, reference compound], in data set [2], the “pKas (higher value, phenolic C3 OH)” value stood at 9.64 and the “pKas (lower value, LH2+)” value turned out to be 3.56.
